Data reported in patent US10245299B2, “Autoassembling peptides for the treatment of pulmonary bulla” (3-D MATRIX, LTD., priority 2014, dated 2019).

System: pulmonary bullae
Assay: Burst pressure of hydrogels as air sealants on collapsed pulmonary bullae of swine lungs
Source text: Swine lungs were obtained from freshly euthanized pigs. An endotracheal tube was inserted through the trachea and primary bronchus into the lung of interest. Pressure was supplied to the lungs with the use of a manual endotracheal intubation pump. The trachea was tied off to prevent air leakage around the tube. The other primary bronchus of the other lung was clamped to direct all airflow to the lung of interest. A manometer was used to measure the pressure of air directed into the lungs to induce expansion.
The self-assembling peptide hydrogels were comprised of Ac-RADARADARADARADA-NH2 (SEQ ID NO: 1) (i.e. RADA16) and Ac-IEIKIEIKIEIKI-NH2 (SEQ ID NO: 2) (i.e. IEIK13) with RADA16 used alone or mixed with calcium chloride. If alone, the peptides were reconstituted in deionized water. If, however the peptides were reconstituted with a salt solution, the peptides were reconstituted first in deionized water, and subsequently, a 2× solution of calcium chloride at a previously decided concentration which was mixed in at a 1:1 ratio.
Pulmonary bullae, as depicted in FIG. 25, are naturally occurring weak areas of the pleura. Prior to application of the hydrogels, the bullae were identified and collapsed using a 16 G needle. […]

Q: Which results are given for “Arg-Ala-Asp-Ala-Arg-Ala-Asp-Ala-Arg-Ala-Asp-Ala-Arg-Ala-Asp-Ala [PuraMatrix®]”?
A: burst pressure compared among formulations (2.5% RADA16 mixed with 0.250 M CaCl2): best burst pressure; filling of collapsed bullae cavity, histological analysis (2.5% RADA16 with CaCl2): entirely filled the pulmonary bullae cavity
